Consider two compounds from publication PMC5412883, “An intranasally delivered peptide drug ameliorates cognitive decline in Alzheimer transgenic mice” (EMBO Molecular Medicine, 2017).

Data set [1] relates to Aβ40 toxicity to Neuro2a cells. Kind of data set: Attenuation of Aβ40 cytotoxicity, MTT assay. Format: cell-based, mouse. The conditions noted are these: Aβ40 30 μM premixed with 30 μM peptide for 24 h at room temperature; Aβ40 alone 30%; MTT 48 h later, N = 12. As for the experimental part:
(§1) Data information: Peptide concentration is 30 μM for each peptide. Standard deviations of the mean are shown as bars for each sample (N = 6 for pure peptide and N = 12 for mixture). The statistics were done by Student's t‐test. Mouse N2a neuroblastoma cells (ATCC) were cultured in Dulbecco's modified Eagle's medium (DMEM) (HyClone, USA) supplemented with 10% fetal bovine serum (HyClone, USA). Cells were harvested with DMEM and suspended at a density of 3.5 × 10^5 cells/ml. 100 μl from each sample was plated in one well of a 96‐well CellBIND microplate (Corning, USA) and then incubated at 37°C under 5% CO2 for 24 h. Five microliters from each stock peptide (6 mM) in DMSO was diluted with 95 μl of PBS (pH 7.0) and then 900 μl of DMEM to a final concentration of 30 μM.
On the technique in general: Tetrazolium dyes change colour on reduction, which living cells bring about.

Another data set has as its target T1, Aβ40 (Homo sapiens, UniProt P05067).
T1 construct: made in house; host or cells: chemical solid-phase peptide synthesis (Fmoc-polyamide), no expression host
Kind of data set: Inhibition of Aβ40 fibrillization (CD spectra, TEM). To be noted: for Aβ40 fibril formation in the presence of peptide at 1:1 ratio (kinetics of CD spectra): authors' reply in review file. Format: biochemical. Here is the method:
(§2) The 1.4 mM stock solution of each peptide in 75% trifluoroethanol was diluted to a final concentration of 30 μM in 20 mM sodium phosphate buffer with 150 mM KCl (PBS, pH 7). Each was incubated at 25°C for designated time points and placed in a 1‐mm cell to record the CD spectra between 200 and 250 nm on a J‐715 CD spectrometer (JASCO, Japan). The band width was set to 2 nm, and the step resolution was 0.05 nm. Each sample was scanned twice and the average of these two measurements was smoothed by the Savitzky–Golay method to get the final CD spectrum.
(§3) The samples were deposited on carbon‐coated 300‐mesh copper grids, incubated for 3 min for absorption, and then washed by water. Negative staining was carried out by staining with 2% uranyl acetate for 1.5 min. After air drying, the samples were viewed using a Hitachi H‐7000 electron microscope (Hitachi, Japan).
Appendix Figure S2. Effect of the designed bipartite peptides on inhibition of A β 40 fibrillization. The peptides were dissolved in 20 mM sodium phosphate buffer with 150 mM KCl and incubated at 25 °C. Peptide concentration is 30 µM for each peptide. The CD spect ra of A β 40 (A), the Aβ 40/R 8-Aβ (25-35) mixture (1:1) (B), and the Aβ 40/DR8-Aβ (25-35) mixture (1:1) (C) were recorded at the indicated incubation times shown in (A). The spectrum change is pointed out by an arrow in (A), indicating the formation of cross-β structure in the am yloid fibrils. (D) The time course of am yloido gen es is of Aβ 40 with and without the designed peptide inhibitors .
The CD spectra were not smoothed. (A) is the same as Fi g. S1A.
(§4) (1 picture or pasted object on this page, not shown here)

Another data set has as its system Neuro2a cells. Kind of data set: Cell viability by MTT assay, peptide alone. Format: cell-based, mouse. To be noted: 30 μM peptide, MTT 48 h later, N = 6. As for the experimental part:
as §1

Data set [2] in a line: CD spectra and TEM of the single peptides (conformation, self-aggregation). The data set is classed as physicochemical. The conditions noted are these: 30 μM peptide in 20 mM sodium phosphate buffer with 150 mM KCl (pH 7), 25°C; for amyloid fibril formation (TEM): incubation for 168 h; for conformation by CD spectra: spectra largely unchanged with incubation time. As for the experimental part:
The circular dichroism (CD) spectra were recorded at various time points as indicated. […] The CD spectra of both peptides remained largely unchanged with the incubation time.
as §2, §3
DR8-Aβ (25-35). The peptides were dissolved in 20 mM sodium phosphate b u ff e r with 150 mM KCl and incubated at 25 °C. Pept ide concentration is 30 µ M. (A-C) The CD spectra were recorded at the indicated incubation time shown in (A).(D -F) […]
formed nucleus ver y fast and β -sheet signal (negative ellipticity at 218 nm) can be seen in the beginning of i ncubation. The CD spectra were not smoothed.
as §4

Where a SMILES comes first, the peptide text is derived from it. [ ]: non-standard residue; d: D form.

T1 sequence (P05067 672-711): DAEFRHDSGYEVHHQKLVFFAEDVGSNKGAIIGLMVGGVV

For `CC[C@H](C)[C@H](NC(=O)[C@H](C)NC(=O)CNC(=O)[C@H](CCCCN)NC(=O)[C@H](CC(N)=O)NC(=O)[C@H](CO)NC(=O)CNC(=O)[C@@H](CCCNC(=N)N)NC(=O)[C@@H](CCCNC(=N)N)NC(=O)[C@@H](CCCNC(=N)N)NC(=O)[C@@H](CCCNC(=N)N)NC(=O)[C@@H](CCCNC(=N)N)NC(=O)[C@@H](CCCNC(=N)N)NC(=O)[C@@H](CCCNC(=N)N)NC(=O)[C@@H](CCCNC(=N)N)NC(C)=O)C(=O)N[C@H](C(=O)NCC(=O)N[C@@H](CC(C)C)C(=O)N[C@@H](CCSC)C(N)=O)[C@@H](C)CC` [^DR8‐Aβ(25–35)] (Ac-[dR][dR][dR][dR][dR][dR][dR][dR]GSNKGAIIGLM-NH2), the “cell viability with Aβ40 plus equal molar peptide” value in data set [1] is 70–75%. Besides, the “Aβ40 fibril formation in the presence of peptide at 1:1 ratio (kinetics of CD spectra)” value on Aβ40 was “failed to formed fibrils”. Besides, on Aβ40 (Aβ40 30 μM and peptide 30 μM (1:1), pH 7, 25°C, CD), the “inhibition effect on Aβ40 fibrillization, 1:1 mixture” value is listed as “inhibition effect was also observed”. In addition, the “toxicity to the N2a cells” value in the data set on Neuro2a cells is reported as “no detectable toxicity”. In data set [2], the “amyloid fibril formation (TEM)” value is “did not form amyloid fibrils at all” and the “conformation by CD spectra” value is on record as “random coil structure”.

Turning to “Ac-RRRRRRRRGSNKGAIIGLM-NH2 [R8‐Aβ(25–35)]”, the “cell viability with Aβ40 plus equal molar peptide” value in data set [1] was 70–75%. On Aβ40, the “Aβ40 fibril formation in the presence of peptide at 1:1 ratio (kinetics of CD spectra)” value was “failed to formed fibrils”. In addition, the “inhibition effect on Aβ40 fibrillization at the lowest ratio” value at Aβ40 (Aβ40 30 μM : peptide 1:0.1) was “observed even when its concentration was ten times lower than Aβ40”. For the same compound, at Aβ40 (Aβ40 30 μM mixed with peptide at 1:0.1, 1:0.2 or 1:1 molar ratio, pH 7, 25°C), the “effect on formation of Aβ40 amyloid fibrils (CD 218 nm, TEM)” value is “significantly delayed or decreased the formation of Aβ40 amyloid fibrils”. Also, the “toxicity to the N2a cells” value with Neuro2a cells is “no detectable toxicity”. In data set [2], the “amyloid fibril formation (TEM)” value is reported as “did not form amyloid fibrils at all” and the “conformation by CD spectra” value is “random coil structure”.
